Converted amounts (≈) assume the structure as drawn. Like-named read-outs stand apart in the source and are kept apart here.
Tested on: leishmania
Experiment: antileishmanial activity measurement (leishmania culture, Tetracolor ONE, OD 450-630 nm)
Format: cell-based
Settings: leishmania culture 2×10^5/ml, 27° C., 5% CO2, 48 hours, then Tetracolor ONE 6 hours, mean of 3 wells
From the text: A hexane extract from Lithospermi Radix (obtained by the method used for Reference example 1), a hexane extract from a mixture of Lithospermi Radix and Angelicae Radix (obtained by the method used for Reference example 2), shikonin (Nagara Science), acetylshikonin (Nagara Science), β,β-dimethylacrylshikonin (Nagara Science), isobutyrylshikonin (Nagara Science), α-methyl-n-butyrylshikonin (Nagara Science), isovalerylshikonin (Nagara Science), β-hydroxyisovalerylshikonin (Nagara Science), and alkanine (Wako Pure Chemical Industries, Ltd.) were subjected to antileishmanial activity measurement.
First, 1 to 5 mg of each sample was dissolved in dimethylsulfoxide (DMSO) such that DMSO solutions (10 mg/ml) were prepared. Then, the solutions were diluted with Medium 199 (800 μg/ml) and allowed to pass through a membrane filter. The resulting test solutions were adjusted to 9 different concentrations. The test solutions (50 μl) at different concentrations and a leishmania culture solution (50 μl) that had been adjusted to a final concentration of 2×10^5/ml were introduced into wells of a microtiter plate such that the total volume of each culture solution was 100 μl in each well. After incubation at 27° C. in the presence of 5% CO2 for 48 hours, 10 μl of a Tetracolor ONE reagent was added thereto, followed by incubation for 6 hours. Thereafter, the OD value (450-630 nm) was measured using a microplate reader. Each sample at each concentration (3 wells) was subjected to measurement such that the mean value was obtained. Then, a graph was created such that the IC50 value was obtained.

Row | Compound | IC50 [µg/mL] | IC50 (read-out: IC50) [µg/mL]
1 | CC(=O)O[C@H](CC=C(C)C)C1=CC(=O)c2c(O)ccc(O)c2C1=O [Acetylshikonin, acetylshikonin] | 0.026 (≈ 0.0787 µM) | 
2 | CC(C)=CC[C@H](O)C1=CC(=O)c2c(O)ccc(O)c2C1=O [Alkanine, alkanine] |  | 0.028 (≈ 0.0971 µM)
3 | CC(C)=CC[C@@H](OC(=O)C(C)C)C1=CC(=O)c2c(O)ccc(O)c2C1=O [Isobutyrylshikonin, isobutyrylshikonin] | 0.017 (≈ 0.0474 µM) | 
4 | CC(C)=CCC(OC(=O)CC(C)C)C1=CC(=O)c2c(O)ccc(O)c2C1=O (centres unmarked) [Isovalerylshikonin, isovalerylshikonin] | 0.02 (≈ 0.0537 µM) | 
5 | CC(C)=CC[C@@H](O)C1=CC(=O)c2c(O)ccc(O)c2C1=O [Shikonin, shikonin] | 0.09 (≈ 0.312 µM) | 
6 | CCC(C)C(=O)OC(CC=C(C)C)C1=CC(=O)c2c(O)ccc(O)c2C1=O (stereo not drawn) [α-methyl-n-butyrylshikonin] | 0.014 (≈ 0.0376 µM) | 
7 | CC(C)=CCC(OC(=O)C=C(C)C)C1=CC(=O)c2c(O)ccc(O)c2C1=O (stereo not drawn) [β,β-dimethylacrylshikonin] | 0.014 (≈ 0.0378 µM) | 
8 | CC(C)=CC[C@@H](OC(=O)CC(C)(C)O)C1=CC(=O)c2c(O)ccc(O)c2C1=O [β-hydroxyisovalerylshikonin] | 0.19 (≈ 0.489 µM) | 

Source: patent publication US20080254136A1, “Antiprotozoal Agent” (JAPAN HEALTH SCIENCES FOUNDATION, priority 2004, published 2008)
